The values that follow come from patent US11312781B2, “Antigen binding molecules that bind LIGHT” (Capella Bioscience Ltd., priority 2018, dated 2022).

Assay [1] deals with CMV stimulated human PBMC. Briefly: Human PBMC antigen specific (CMV) recall response in vitro, cytokines by Luminex. It is filed as cell-based. The following applies: CMV stimulation, 5 day incubation; for IFN gamma production from PBMC: FIG. 11B. The protocol:
In order to test the efficacy of anti-LIGHT mAbs on stimulated PBMC a recall antigen CMV (cytomegalovirus) lysate was utilised to stimulate PBMC from human CMV-positive donors (ImmunXperts, Belgium). 200 000 cells per well in RPMI (Thermofisher cat. no. 11875) plus 10% FBS (GIBCO) was added to CMV lysate (Serion immunologics cat. no. BA109VS, final concentration 10 ug/ml) with test mAbs in a volume of 200 ul. After a 5 day incubation at 37C and 5% CO2 the media was recovered by centrifugation and assayed for cytokines by Luminex immunoassay (ThermoFisher).

The test system of assay [2] is DSS-induced colitis in hu-NOG mice. The assay is described as follows: DSS-induced acute colitis in humanized (hu-NOG) mice. It is filed as in vivo, mouse (hu-NOG). To be noted: i.p. days 0, 3, 6, 9, versus IgG control, FIG. 9. The protocol:
The experiments were carried out with the NOD/Shi-scid/IL-2Rγnull immunodeficient mouse strain (NOG) engrafted with CD34+ hematopoietic stem cells isolated from human cord blood as described in Manfroi B et al. (Cancer Res. 2017; 77:1097-1107). The reconstitution of the human immune system in the mice occurred for at least 14 weeks, and hu-mice were used that had at least 25% human CD45+/total CD45 cells. Female hu-NOG mice were randomised into 3 groups (n=10) taking into account the humanization rate and the CD34+ cell donors. All animal studies described in this study have been reviewed and approved by the local ethic committee (CELEAG). Mice were allowed to acclimate to the experimental environment for 5 days prior to the beginning of the experiment. The DSS was administrated for 7 days, from day 2 to 8. The DSS (3%) was added to the drinking water (ad libitum) and freshly renewed every two days.
All treatments started before the DSS-induced colitis. 3B04 variant 16 (5 mg/kg) and the isotype control and anti-TNF (Humira) antibodies (10 mg/kg) were administrated i.p. on days 0, 3, 6, 9. The experiment was terminated on day 12. The following parameters were recorded daily for 12 days: body weight in grams (g); diarrhea and stool consistency; bleeding and mortality. The global clinical score was calculated as follows: […]

Take `C[C@@H]1CCN(C(=O)CC#N)C[C@@H]1N(C)c1ncnc2[nH]ccc12` [Tofacitinib, reference compound]: the “IL-17 production from PBMC” value in assay [1] (FIG. 11A) is “inhibited”. Moreover, in assay [1], the “IFN gamma production from PBMC” value is “inhibited”.
“Opdivo: anti-PD-1 antibody, positive control in the PBMC assay (10 ug/ml) [reference compound]”: the “IFN gamma production from PBMC” value in assay [1] is “increased”.
Turning to adalimumab [humira, reference compound], the Global clinical score entry in assay [2] is “significant drop in the global clinical score from days 9 to 11”.
